Measurements: PMC4861708 (Frontiers in Cell and Developmental Biology, 2016)
≈ marks a conversion by molar mass, not a printed value. Where a SMILES comes first, the peptide text is derived from it. [ ]: non-standard residue; d: D form. The star is where a group is joined. Orn(α-tetramethylguanidino) = CN(C)C(=N[C@@H](CCCN)C(=O)*)N(C)C; Orn = NCCC[C@H](N)C(=O)O

Tests used:
P. aeruginosa elastase = molecular target: T1, P. aeruginosa elastase (Pseudomonas aeruginosa, UniProt P14756); test: Elastase assay (proteolytic stability); assay type: in vitro ADME; conditions: after 30 min and all later time points, elastase 12 units/mL, pH 8.3, 37°C
T1 construct: purchased Merck (Darmstadt, Germany)
Experimental: A stock solution of P. aeruginosa elastase (0.26 U/μL) was prepared in Tris-HCl (5 mmol/L, pH 8.3) and stored at −80°C. Peptides (0.5 g/L in 5 mmol/L Tris-HCl, pH 8.3) were incubated with elastase (0.012 U/μL) at 37°C under constant shaking (450 rpm) for 0, 0.5, 2, 4, and 6 h. Aliquots (10.5 μL) were precipitated with a mixture of acetonitrile and ethanol (1:1 v/v) containing 0.1% TFA (21 μL), centrifuged, the supernatant transferred into a new tube, and dried in vacuum. Samples were dissolved in aqueous acetonitrile (3% v/v) containing TFA (0.1% v/v) and analyzed by RP-HPLC using the conditions described above.

[1] = tested on: E. coli DSM 1103 (ATCC 25922); assay type: cell-based, Escherichia coli; conditions: DSM 1103, 24 h
E. coli DSM 1103 = test: Transmission electron microscopy, morphological changes; assay type: cell-based, Escherichia coli; conditions: 1 h
Experimental: Peptide-bacteria mixtures were fixed (2% glutaraldehyde, 5 mmol/L CaCl2, 10 mmol/L MgCl2 in 0.1 mol/L sodium cacodylate buffer, pH 7.4) overnight at 4°C. […] Samples were rinsed with distilled water (5 × 10 min), incubated with aqueous uranylacetate (0.5% w/v) for 1 h at 4°C, washed with distilled water (3 × 10 min), and embedded in Epon. The hardened blocks were sectioned (50 nm) on a UCT ultramicrotome (Leica, Vienna, Austria), stained with uranyl acetate and lead citrate on an AC20 system (Leica), and visualized at a Tecnai 12 electron microscope (FEI, Eindhoven, The Netherlands) at 80 kV. Morphological effects were quantified on average for 25 cells per condition.

[2] = tested on: P. aeruginosa DSM 1117 (ATCC 27853); assay type: cell-based, Pseudomonas aeruginosa; conditions: DSM 1117, 24 h
Experimental: MICs of P. aeruginosa strains DSM 1117 (ATCC 27853), DSM 3227 (ATCC 19429), and DSM 9644 were determined in a microdilution broth assay using 50 or 100% MHB (11.5 and 23 g/L MHB, respectively) whereas MICs of E. coli DSM 1103 (ATCC 25922) and K. pneumoniae DSM 681 (ATCC 10031) were determined in TSB (30 g/L TSB). Peptides (1 g/L in water) were serially two-fold diluted in a 96-well microtiter plate (PS, sterile, flat bottom) in 50 μL of the corresponding medium to final concentrations of 512–4 μg/mL. Bacteria were grown in nutrient broth overnight and diluted to a cell concentration of 1.5 × 10^7 cells/mL in the corresponding medium. Cell densities were determined by using the McFarland standard as reference. An aliquot (50 μL) of the cell culture was added to each well and incubated (37°C, 24 h). The OD595 was determined in a SpectraMax 340PC (Molecular Devices, Sunnyvale, USA). Additionally, MIC values were also determined for high bacteria densities (5 × 10^8 cells/mL) corresponding to the conditions used for TEM, as described above.

[3] = tested on: K. pneumoniae DSM 681 (ATCC 10031); assay type: cell-based, Klebsiella pneumoniae; conditions: DSM 681, 24 h
Procedure, shortened: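 Broth microdilution MIC: P. aeruginosa strains in 50 or 100% MHB, K. pneumoniae in TSB; peptides 512–4 μg/mL final. Inoculum from 1.5 × 10^7 cells/mL suspension, also high density 5 × 10^8 cells/mL; 37°C, 24 h, growth read at OD595.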

T1 sequence (P14756 198-498): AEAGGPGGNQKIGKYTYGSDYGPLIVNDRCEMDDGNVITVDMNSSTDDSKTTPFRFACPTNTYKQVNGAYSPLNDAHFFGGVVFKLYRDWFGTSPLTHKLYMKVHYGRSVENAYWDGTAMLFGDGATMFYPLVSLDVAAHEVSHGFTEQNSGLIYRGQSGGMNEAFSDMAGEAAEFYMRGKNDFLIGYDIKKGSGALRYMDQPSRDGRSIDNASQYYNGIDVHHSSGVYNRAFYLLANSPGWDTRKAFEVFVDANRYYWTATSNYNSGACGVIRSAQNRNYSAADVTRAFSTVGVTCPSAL

CC[C@H](C)[C@H](NC(=O)[C@H](CCCN)N=C(N(C)C)N(C)C)C(=O)N[C@@H](CCCN)C(=O)N[C@H](C(=O)N[C@@H](CCCN)C(=O)N[C@@H](CCCNC(=N)N)C(=O)N1CCC[C@H]1C(=O)N[C@H](C(=O)N[C@@H](Cc1ccc(O)cc1)C(=O)N[C@@H](CCCN)C(=O)N1CCC[C@H]1C(=O)N[C@@H](CCCNC(=N)N)C(=O)N1CCC[C@H]1C(=O)N[C@@H](CCCNC(=N)N)C(=O)N1CCC[C@H]1C(=O)N1CCC[C@H]1C(=O)N[C@@H](Cc1c[nH]cn1)C(=O)N1CCC[C@H]1C(=O)N[C@@H](CCCNC(=N)N)C(=O)N[C@@H](CC(C)C)C(=O)O)C(C)C)[C@@H](C)CC [Api795, gu-O(IO)2RPVYOPRPRPPHPRL-OH] ({Orn(α-tetramethylguanidino)}-I[Orn]I[Orn]RPVY[Orn]PRPRPPHPRL-OH)
Peptide detected with elastase (P. aeruginosa elastase): 92 ± 4%
MIC E. coli ATCC 25922 [1]: 8 µg/mL (≈ 3.18 µM)
MIC E. coli DSM 1103, high inoculum [1]: 32 µg/mL (≈ 12.7 µM)
Cell: r, ruptured (E. coli DSM 1103; 8 µg/mL): 0%
DNA/Ribosomes relocalized (E. coli DSM 1103; 8 µg/mL): 0%
Fragments: +++, long and thick (E. coli DSM 1103; 8 µg/mL): 0%
Fragments: ++, long and thin (E. coli DSM 1103; 8 µg/mL): 23%
Fragments: +, small and thin (E. coli DSM 1103; 8 µg/mL): 63%
Fragments: -, no (E. coli DSM 1103; 8 µg/mL): 13%
Fragments: LV, large vesicles (E. coli DSM 1103; 8 µg/mL): 0%
Membrane: i, intact (E. coli DSM 1103; 8 µg/mL): 3%
Membrane: w, wrinkled (E. coli DSM 1103; 8 µg/mL): 97%
Vesicle release weak (E. coli DSM 1103; 8 µg/mL): 30%
Cell: r, ruptured (E. coli DSM 1103; 32 µg/mL): 0%
DNA/Ribosomes relocalized (E. coli DSM 1103; 32 µg/mL): 0%
Fragments: +++, long and thick (E. coli DSM 1103; 32 µg/mL): 0%
Fragments: ++, long and thin (E. coli DSM 1103; 32 µg/mL): 10%
Fragments: +, small and thin (E. coli DSM 1103; 32 µg/mL): 57%
Fragments: -, no (E. coli DSM 1103; 32 µg/mL): 33%
Fragments: LV, large vesicles (E. coli DSM 1103; 32 µg/mL): 0%
Membrane: i, intact (E. coli DSM 1103; 32 µg/mL): 7%
Membrane: w, wrinkled (E. coli DSM 1103; 32 µg/mL): 93%
Vesicle release weak (E. coli DSM 1103; 32 µg/mL): 43%
Cell: r, ruptured (E. coli DSM 1103; 128 µg/mL): 0%
DNA/Ribosomes relocalized (E. coli DSM 1103; 128 µg/mL): 0%
Fragments: +++, long and thick (E. coli DSM 1103; 128 µg/mL): 0%
Fragments: ++, long and thin (E. coli DSM 1103; 128 µg/mL): 30%
Fragments: +, small and thin (E. coli DSM 1103; 128 µg/mL): 53%
Fragments: -, no (E. coli DSM 1103; 128 µg/mL): 17%
Fragments: LV, large vesicles (E. coli DSM 1103; 128 µg/mL): 0%
Membrane: i, intact (E. coli DSM 1103; 128 µg/mL): 17%
Membrane: w, wrinkled (E. coli DSM 1103; 128 µg/mL): 83%
Vesicle release weak (E. coli DSM 1103; 128 µg/mL): 47%
Cell: r, ruptured (E. coli DSM 1103; 512 µg/mL): 0%
DNA/Ribosomes relocalized (E. coli DSM 1103; 512 µg/mL): 30%
Fragments: +++, long and thick (E. coli DSM 1103; 512 µg/mL): 0%
Fragments: ++, long and thin (E. coli DSM 1103; 512 µg/mL): 37%
Fragments: +, small and thin (E. coli DSM 1103; 512 µg/mL): 63%
Fragments: -, no (E. coli DSM 1103; 512 µg/mL): 0%
Fragments: LV, large vesicles (E. coli DSM 1103; 512 µg/mL): 0%
Membrane: i, intact (E. coli DSM 1103; 512 µg/mL): 33%
Membrane: w, wrinkled (E. coli DSM 1103; 512 µg/mL): 67%
Vesicle release weak (E. coli DSM 1103; 512 µg/mL): 60%
MIC P. aeruginosa DSM 1117, high inoculum [2]: 16 µg/mL (≈ 6.35 µM)
MIC K. pneumoniae DSM 681 [3]: 8 µg/mL (≈ 3.18 µM)
